According to PubChem BioAssay AID1259408 (Genetic Toxicology Data Bank (GENE-TOX), 2018):
Activity calls are given as the source filed them. The rule behind the calls is not given here.

System: GENE-TOX genotoxicity assays, various organisms and cells
Test: GENE-TOX mutagenicity studies
Settings: for call: Assay Type: In vivo carcinogenicity studies
[1] = Species/Cell Type: Salmonella typhimurium (one or more of the five standard strains: TA98, TA100, TA1535, TA1537, and TA1538), Assay Type: Histidine reverse gene mutation, Ames assay, Assay Code: SALT, Evaluation Type: Evaluation A (Pre-1980)
[2] = Species/Cell Type: Nonhuman, Assay Code: CCG+, Evaluation Type: Evaluation A (Pre-1980)
[3] = Species/Cell Type: Salmonella typhimurium (one or more of the five standard strains: TA98, TA100, TA1535, TA1537, and TA1538), Assay Type: Histidine reverse gene mutation, Ames assay, Assay Code: SAL+*, Activation: With metabolic activation, Evaluation Type: Evaluation A (Pre-1980)
[4] = Species/Cell Type: Drosophila melanogaster, Assay Type: Sex-linked recessive lethal gene mutation, Assay Code: SRLT, Evaluation Type: Evaluation A (Pre-1980)
[5] = Species/Cell Type: Allium cepa, Assay Type: Chromosome aberrations, Assay Code: ALC-, Evaluation Type: Evaluation A (Pre-1980)
[6] = Species/Cell Type: Human lymphocytes, Assay Type: Sister-chromatid exchange (SCE) in vitro, Assay Code: SCLT, Evaluation Type: Evaluation B (Post-1980)
[7] = Species/Cell Type: Human, Assay Type: Sister-chromatid exchange (SCE) in vitro, Assay Code: SC1T, Evaluation Type: Evaluation B (Post-1980)
[8] = Species/Cell Type: Saccharomyces cerevisiae, Assay Type: Mitotic recombination or gene conversion, Assay Code: YEH-, Evaluation Type: Evaluation A (Pre-1980)
[9] = Species/Cell Type: Arabidopsis species, Assay Type: Gene mutation, Assay Code: ARM-, Evaluation Type: Evaluation A (Pre-1980)
[10] = Species/Cell Type: Escherichia coli polA (W3119 vs P3478), Assay Type: Rec-assay, DNA effects (bacterial DNA repair), Assay Code: RE1T, Evaluation Type: Evaluation A (Pre-1980)
[11] = Species/Cell Type: Nonhuman, Assay Code: CCGT, Evaluation Type: Evaluation A (Pre-1980)
[12] = Species/Cell Type: Salmonella typhimurium (one or more of the five standard strains: TA98, TA100, TA1535, TA1537, and TA1538), Assay Type: Histidine reverse gene mutation, Ames assay, Assay Code: SAL+, Evaluation Type: Evaluation A (Pre-1980)
[13] = Species/Cell Type: Salmonella typhimurium, Assay Type: Forward and reverse gene mutation, host-mediated assay, Assay Code: HMA-, Evaluation Type: Evaluation A (Pre-1980)

SMILES: Cc1c(C2(c3cc(Br)c(O)c(Br)c3C)OS(=O)(=O)c3ccccc32)cc(Br)c(O)c1Br
- mutagenic call (Species/Cell Type: Bacillus subtilis (H17 vs M45T), Assay Type: Rec-assay, spot test, DNA effects (bacterial DNA repair), Assay Code: REXT, Evaluation Type: Evaluation A (Pre-1980)): no conclusion
- mutagenic call [1]: no conclusion

SMILES: O[C@@H]1c2ccc3cc4ccccc4cc3c2[C@@H]2OC2[C@@H]1O (stereo partly specified)
- mutagenic call (Species/Cell Type: Chinese hamster lung (V79) cells, Assay Type: Forward gene mutation at the HPRT or ouabain locus, Assay Code: V79+, Evaluation Type: Evaluation A (Pre-1980)): active; positive

SMILES: c1ccc(N=Nc2ccccc2)cc1
- call [2]: active; positive
- mutagenic call (Species/Cell Type: Nonhuman, Assay Type: Sister-chromatid exchange (SCE) in vitro, Assay Code: SC2+D, Dose Response: With dose response, Evaluation Type: Evaluation B (Post-1980)): active; positive
- mutagenic call [3]: active; positive

SMILES: CC(C)NCC(O)c1ccc(NS(C)(=O)=O)cc1 (stereo unspecified)
- mutagenic call (Species/Cell Type: Mammalian polychromatic erythrocytes, Assay Type: Micronucleus test, chromosome aberrations, Assay Code: MNTT, Evaluation Type: Evaluation B (Post-1980)): no conclusion

SMILES: ON=C1CCCCC1
- mutagenic call [4]: no conclusion

SMILES: F/C(=C(/F)C(F)(F)F)C(F)(F)F
- mutagenic call [4]: no conclusion

SMILES: Cc1nc(N(C)C)nc(OC(=O)N(C)C)c1C
- mutagenic call (Species/Cell Type: Aspergillus nidulans, Assay Type: Aneuploidy, chromosome aberrations, Assay Code: ASN-, Evaluation Type: Evaluation A (Pre-1980)): inactive; negative

SMILES: O=S(O)(O)=S
- mutagenic call [5]: inactive; negative

SMILES: O=C1CCc2c1ccc1c2ccc2ccccc21
- mutagenic call [6]: no conclusion
- mutagenic call [7]: no conclusion
- mutagenic call [3]: active; positive

SMILES: Cn1c(=O)c(N)c(-c2ccccc2)c2cc(Cl)ccc21
- mutagenic call [1]: no conclusion

SMILES: CN(C)C(=S)SSC(=S)N(C)C
- mutagenic call (Species/Cell Type: Bacillus subtilis (H17 vs M45), Assay Type: Rec-assay, spot test, DNA effects (bacterial DNA repair), Assay Code: REW+, Evaluation Type: Evaluation A (Pre-1980)): active; positive
- mutagenic call (Species/Cell Type: Mammalian polychromatic erythrocytes, Assay Type: Micronucleus test, chromosome aberrations, Assay Code: MNT+, Evaluation Type: Evaluation A (Pre-1980)): active; positive

SMILES: CC(C)=CC1C(C(=O)O)C1(C)C (stereo unspecified)
- mutagenic call (Species/Cell Type: Human diploid fibroblasts, Assay Type: Unscheduled DNA synthesis (UDS) in vitro, DNA effects, Assay Code: UDH-, Evaluation Type: Evaluation A (Pre-1980)): inactive; negative
- mutagenic call [8]: inactive; negative

SMILES: Cc1ccc2cc3c(ccc4ccccc43)c3c2c1C(O)C3O (stereo unspecified)
- mutagenic call (Species/Cell Type: Mouse prostate cells, Assay Type: Cell transformation, Assay Code: CTM+D, Dose Response: With dose response, Evaluation Type: Evaluation A (Pre-1980)): active; positive

SMILES: O=[N+]([O-])c1ccc(O)c([N+](=O)[O-])c1
- mutagenic call (Species/Cell Type: Allium cepa, Assay Type: Chromosome aberrations, Assay Code: ALC+, Evaluation Type: Evaluation A (Pre-1980)): active; positive
- mutagenic call [9]: inactive; negative

SMILES: Oc1ccc2ccc3c4ccccc4cc4ccc1c2c43
- mutagenic call (Species/Cell Type: Chinese hamster lung (V79) cells, Assay Type: Forward gene mutation at the HPRT or ouabain locus, Assay Code: V79+/-*, Activation: With metabolic activation, Evaluation Type: Evaluation A (Pre-1980)): inactive; positive without activation, negative with activation
- mutagenic call (Species/Cell Type: Escherichia coli polA (W3110 vs P3478), Assay Type: Rec-assay, DNA effects (bacterial DNA repair), Assay Code: RE2+, Evaluation Type: Evaluation A (Pre-1980)): active; positive
- mutagenic call [10]: no conclusion
- call [11]: no conclusion
- mutagenic call [8]: inactive; negative
- mutagenic call [12]: active; positive
- mutagenic call [13]: inactive; negative

SMILES: CC(N)=O
- mutagenic call (Species/Cell Type: Escherichia coli polA (W3110 vs P3478), Assay Type: Rec-assay, DNA effects (bacterial DNA repair), Assay Code: RE2-, Evaluation Type: Evaluation A (Pre-1980)): inactive; negative
- mutagenic call [10]: no conclusion
- mutagenic call (Species/Cell Type: Fischer rat embryo (RLV/1706) cells, Assay Type: Cell transformation, viral enhanced, Assay Code: CTR+, Evaluation Type: Evaluation A (Pre-1980)): active; positive
- mutagenic call (Species/Cell Type: Mammalian polychromatic erythrocytes, Assay Type: Micronucleus test, chromosome aberrations, Assay Code: MNT+U, Dose Response: Unconfirmed positive response, Evaluation Type: Evaluation B (Post-1980)): active; positive
- mutagenic call (Species/Cell Type: Mouse embryo (AKR/ME) cells, Assay Type: Cell transformation, Assay Code: CTK+, Evaluation Type: Evaluation A (Pre-1980)): active; positive
- mutagenic call (Species/Cell Type: Mouse, Sex: Male, Assay Type: Sperm morphology, Assay Code: SPI-, Evaluation Type: Evaluation A (Pre-1980)): inactive; negative
- call [2]: active; positive
- mutagenic call [8]: inactive; negative
- mutagenic call (Species/Cell Type: Salmonella typhimurium (one or more of the five standard strains: TA98, TA100, TA1535, TA1537, and TA1538), Assay Type: Histidine reverse gene mutation, Ames assay, Assay Code: SAL-, Evaluation Type: Evaluation A (Pre-1980)): inactive; negative
- mutagenic call [13]: inactive; negative
- mutagenic call (Species/Cell Type: Syrian hamster embryo (SHE) cells, Assay Type: Cell transformation, clonal assay, Assay Code: CTC+, Evaluation Type: Evaluation A (Pre-1980)): active; positive

SMILES: COc1cc2ccc(=O)oc2cc1O
- mutagenic call (Species/Cell Type: Allium cepa, Assay Type: Chromosome aberrations, Assay Code: ALC+D, Dose Response: With dose response, Evaluation Type: Evaluation A (Pre-1980)): active; positive

SMILES: Cc1c2ccccc2cc2c3c(ccc12)C=C[C@@H](O)[C@@H]3O
- mutagenic call (Species/Cell Type: Mouse prostate cells, Assay Type: Cell transformation, Assay Code: CTM+, Evaluation Type: Evaluation A (Pre-1980)): active; positive
- call [11]: no conclusion
- mutagenic call (Species/Cell Type: Nonhuman, Assay Type: Sister-chromatid exchange (SCE) in vitro, Assay Code: SC2+, Evaluation Type: Evaluation A (Pre-1980)): active; positive

SMILES: O=C1CN(CO)C(=O)CN1CO
- mutagenic call [9]: inactive; negative

SMILES: O[C@H]1[C@@H]2O[C@@H]2c2cc3ccc4cccc5ccc(c2[C@@H]1O)c3c45
- mutagenic call (Species/Cell Type: Mouse prostate cells, Assay Type: Cell transformation, Assay Code: CTM-, Evaluation Type: Evaluation A (Pre-1980)): inactive; negative

SMILES: COc1cc2c(c(OC)c1OC)-c1ccc(OC)c(=O)cc1[C@@H](NC(C)=O)CC2
- mutagenic call (Species/Cell Type: Drosophila melanogaster, Assay Type: Aneuploidy, sex chromosome gain, chromosome aberrations, Assay Code: DAG+F, Evaluation Type: Evaluation A (Pre-1980)): active; positive
- mutagenic call (Species/Cell Type: Drosophila melanogaster, Assay Type: Aneuploidy, whole sex chromosome loss, chromosome aberrations, Assay Code: DAC+F, Evaluation Type: Evaluation A (Pre-1980)): active; positive
- mutagenic call (Species/Cell Type: Glycine max (soybean), Assay Type: Gene mutation, Assay Code: GLM+, Evaluation Type: Evaluation A (Pre-1980)): active; positive
- mutagenic call (Species/Cell Type: Human, Sex: Male, Assay Type: Sperm morphology, Assay Code: SPHT, Evaluation Type: Evaluation A (Pre-1980)): no conclusion
- mutagenic call (Species/Cell Type: Mammalian cell culture, nonhuman, Assay Type: Micronucleus test in vitro, chromosome aberrations, Assay Code: MN&+, Evaluation Type: Evaluation A (Pre-1980)): active; positive
- mutagenic call (Species/Cell Type: Mammalian polychromatic erythrocytes, Assay Type: Micronucleus test, chromosome aberrations, Assay Code: MNT+, Evaluation Type: Evaluation B (Post-1980)): active; positive
- mutagenic call (Species/Cell Type: Mammalian polychromatic erythrocytes, Assay Type: Micronucleus test, chromosome aberrations, Assay Code: MNTT, Evaluation Type: Evaluation A (Pre-1980)): no conclusion
- mutagenic call (Species/Cell Type: Mouse, Sex: Male, Assay Type: Sperm morphology, Assay Code: SPI+, Evaluation Type: Evaluation A (Pre-1980)): active; positive
- mutagenic call (Species/Cell Type: Neurospora crassa, Assay Type: Aneuploidy, chromosome aberrations, Assay Code: NEN-, Evaluation Type: Evaluation A (Pre-1980)): inactive; negative
- mutagenic call (Species/Cell Type: Nonhuman, Assay Type: Sister-chromatid exchange (SCE) in vivo, Assay Code: SC3-, Evaluation Type: Evaluation B (Post-1980)): inactive; negative
- mutagenic call (Species/Cell Type: Plant, Assay Type: Micronucleus test, chromosome aberrations, Assay Code: MNP+, Evaluation Type: Evaluation A (Pre-1980)): active; positive

SMILES: OCc1ccco1
- mutagenic call [6]: no conclusion
- mutagenic call [7]: no conclusion

SMILES: CCCCCCCC(=O)OCC(COC(=O)CCCCCCC)OC(=O)CCCCCCC
- mutagenic call (Species/Cell Type: Mouse, Sex: Female, Assay Type: Spot test, gene mutation, Assay Code: MSTT, Evaluation Type: Evaluation A (Pre-1980)): no conclusion

SMILES: OC[C@H]1O[C@@H](n2cnc3cncnc32)[C@H](O)[C@@H]1O
- mutagenic call [9]: inactive; negative

SMILES: Nc1ccc(O)c(N)c1
- mutagenic call [5]: inactive; negative

SMILES: O=C1OC2(c3ccccc31)c1ccc(O)c(Br)c1Oc1c2ccc(O)c1Br
- mutagenic call [1]: no conclusion

SMILES: CCCCN(CCCC(=O)NCC(=O)O)N=O
- mutagenic call [1]: no conclusion

SMILES: CC1CN(/N=C/c2ccc([N+](=O)[O-])o2)C(=O)N1 (stereo unspecified)
- mutagenic call [12]: active; positive

SMILES: C[C@]12CCC3=C4CCC(=O)C=C4CC[C@H]3[C@@H]1CC[C@@]2(O)CC#N
- mutagenic call (Species/Cell Type: Rabbit, Sex: Male, Assay Type: Sperm morphology, Assay Code: SPR+, Evaluation Type: Evaluation A (Pre-1980)): active; positive
